According to EP0099122A2, “Compositions comprising pepstatin and an histamine H2-receptor antagonist having an enhanced antiulcer activity” (Bristol-Myers Company, priority 1982, dated 1984):

Test system: HCl-Induced Formation of Gastric Lesions
Assay: HCl-induced gastric erosions in rats (modified method of Robert et al.)
Type: in vivo, Long Evans rats
Conditions: for enhancement of the inhibitory effect by pepstatin: plus 20 mg/kg pepstatin
Protocol: In the tests described below, gastric erosions produced in rats by the oral instillation of 1.0 mL of 0.75N HC1 were compared with those in rats which had been pretreated with the most preferred compound of Formula I (of Example 1) or with that compound and pepstatin. Comparison tests utilizing pretreatment with the newer commercial product, ranitidine, and with ranitidine and pepstatin, are also shown. Ranitidine is about 4 and 6 times as potent as cimetidine as an inhibitor of gastric acid secretion by the oral route in the rat and dog, respectively.
A modification of the method of Robert et al., [Gastroenterology, 77, 433-443 (1979)] was employed to produce gastric erosions. Adult male, Long Evans rats weighing 280-300 g (Blue Spruce Farms, Alton, New York) were used. The animals were individually caged and food and water were removed 24 and 18 hours, respectively, prior to testing. On the following day, the test compound was administered orally to the animals 30 minutes before 1.0 mL of 0.75N HC1 was instilled into the stomach by gavage. Animals treated with the combination of the test compound and pepstatin received the test compound 30 minutes before, and a fixed amount of pepstatin (20 mg/kg po) 10 minutes before, the hydrochloric acid was administered. […] One hour after receiving the HC1 solution, the animals were sacrificed with an intraperitoneal injection of 0.2 mL of T-61®, a euthanasia solution (National Laboratories Corp.).
The stomachs were removed from the animals, cut along the greater curvature, opened, rinsed with saline and pinned out flat in a standard position for macroscopic examination and scoring of erosions. The stomachs were photographed with a Polaroid® Close Up camera (Polaroid Corporation) and scoring was determined from the photographs. For scoring purposes, only those erosions with a minimum length of 1 mm were considered. The severity of gastric ulceration was defined for each animal as the sum of the maximum continuous lengths (in mm) of the erosions satisfying the above criteria. Percent inhibition of lesion formation was defined as
(mm erosion, vehicle control') - (mm erosion, test agent) 100. (mm erosion, vehicle control)
Data were analyzed using the t-test for unpaired data' and ED50 values were calculated from the dose response data using probit analysis [Finney, Probit Analysis, 3rd ed., University Press, Cambridge, England (1971)].
The compound of Example 1 and ranitidine (synthesized by the Medicinal Chemistry Research Department of Bristol Laboratories, Division of.Bristol-Myers Company) were dissolved in one equivalent of HC1 and the pH adjusted to 5.5 with NaOH. A suspension of pepstatin (Banyu Pharmaceutical Co. Ltd.) in water was made by homogenizing the compound with a few drops of Tween-80® (Atlas Chemical Industries). Each of these compounds were administered orally by gavage in a volume of 2 mL/kg.

## Nc1c(NCCCOc2cccc(CN3CCCCC3)c2)c(=O)c1=O [Example 1]
Compound alone versus compound plus pepstatin (20 mg/kg po)
  Potency Ratio: 3.5
Example 1 at 25 mg/kg
  enhancement of the inhibitory effect by pepstatin: the difference was not statistically significant
Example 1 at 50 and 75 mg/kg, ranitidine at 25-100 mg/kg
  enhancement of the inhibitory effect by pepstatin: significantly enhanced the inhibitory effect
Pretreatment po, compound alone, Example 1 at 25, 50 or 75 mg/kg, ranitidine at 25, 50, 75 or 100 mg/kg
  formation of gastric erosions: decreased the formation of gastric erosions in a dose-related manner
rat, compound po 30 min before 1.0 mL 0.75N HCl, compound alone, probit analysis, read-out: ED50 (mg/kg) for Inhibition of Ulcer Formation, Alone
  ED50: 115 mg/kg
rat, compound po 30 min before and pepstatin 20 mg/kg po 10 min before 1.0 mL 0.75N HCl
  ED50 (mg/kg) for Inhibition of Ulcer Formation, with Pepstatin: 33 mg/kg
